Results published in article PMC11291634 (Scientific Reports, 2024).

Target: carboxylesterase Ha006a
Assay: ITC with purified protein, one-site model, […] °C
Type: binding, Helicoverpa armigera

Q: For `CCNc1nc(Cl)nc(NC(C)C)n1` [ATZ, atrazine], which Kd is on record?
A: The Kd was 57 µM.
